Experimental data as given in patent US7514245B2, “Method for producing chiral α-hydroxycarboxylic acids by enzymatic hydrolysis of chiral cyanohydrins” (DSM Fine Chemicals Austria NFG GmbH & Co. KG, priority 2003, dated 2009).

Biological target: T1, Rhodococcus erythropolis NCIMB 11540 amidase (Rhodococcus erythropolis, UniProt P22984)
T1 construct: made in house; host or cells: E. coli B BL21 (plasmid pMS470-33/3/1/11), crude lysate
T1 sequence (P22984 1-521): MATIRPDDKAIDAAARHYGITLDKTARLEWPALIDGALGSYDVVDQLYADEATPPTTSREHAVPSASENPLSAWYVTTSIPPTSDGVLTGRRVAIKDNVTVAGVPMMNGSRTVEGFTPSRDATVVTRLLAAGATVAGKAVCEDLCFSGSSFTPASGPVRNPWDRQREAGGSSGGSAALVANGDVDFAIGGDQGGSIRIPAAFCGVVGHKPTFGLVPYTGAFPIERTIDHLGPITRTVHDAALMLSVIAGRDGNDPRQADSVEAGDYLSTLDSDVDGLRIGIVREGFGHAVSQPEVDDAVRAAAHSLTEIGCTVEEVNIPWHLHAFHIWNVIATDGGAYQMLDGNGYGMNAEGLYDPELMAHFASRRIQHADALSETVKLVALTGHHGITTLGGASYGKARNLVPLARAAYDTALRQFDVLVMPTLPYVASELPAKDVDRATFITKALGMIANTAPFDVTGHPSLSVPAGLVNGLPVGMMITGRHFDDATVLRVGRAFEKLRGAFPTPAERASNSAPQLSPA
Experiment: Determination of amidase activity of crude lysates with acetamide
Type: biochemical
Conditions: pMS470-33/3/1/11 lysate; acetamide (40 mM) in PBS buffer at 37° C.; indophenolblue method
Experimental: The E. coli B BL21 cells transformed by pMS470-33/3/1/11 were isolated on LB-ampicillin plates and an ONC of 100 ml of LB-ampicillin medium was inoculated with an individual colony. On the next morning a main culture consisting of 250 ml of SOC-ampicillin medium was inoculated into a 1000 ml chicane flask to an OD600 of 0.01 to 0.03 (Beckmann Photometer). […] After reaching the induction density (OD600=1 Beckmann Photometer), the cultures were induced by adding IPTG to a concentration of 0.3 mM. After an induction time of 16 h, the cells were harvested (centrifugation 3000·g, 10 min) and washed with sodium phosphate buffer (0.1 M, pH=7). The pellet produced was resuspended to approximately 5 ml total volume in wash buffer and disintegrated using an ultrasound probe (BRANSON Sonifier 250, 60% power setting, constant sonication; 5 times 30 s each with 1 min pause for cooling) with constant cooling to completeness (visual control of completeness under the microscope). […]
[…] The resultant blue coloration, after dilution of all samples and standards 1:10) with water, was quantified in the spectrophotometer (Perkin Elmer UV/VIS Spectrometer Lambda Bio) at 640 nm. By correlating the increase in blue coloration over time with the extinction values of the standards, the activity (μmol of released ammonium per minute) could be back-calculated.

CC(N)=O [acetamide]
activity of crude lysates: approximately 75 U/ml
